What all share (assay): NCI anticancer screen, dose series, 48 h
For test [1], the system named is HCT-15 colon.
In test [2] the test system is HS 578T breast.
Test [3] relates to HT29 colon.
Test [4] concerns LOX IMVI melanoma.
Test [5] concerns MDA-MB-231 breast.
Test [6] relates to MOLT-4 leukemia.
Test [7] concerns OVCAR-8 ovarian.
Test [8] deals with SF-268 CNS.
Test [9] relates to SK-MEL-2 melanoma.
Test [10] has as its system SN12C renal.
The subject of test [11] is T-47D breast.

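All cell lines were grown in 96-well plates and treated with compound for 48 hours. Definition used: TGI = concentration required for complete inhibition of growth.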

On to `O=C(O)c1ccc(Nc2nc3ccc(C(F)(F)F)cc3nc2C(=O)O)cc1`, for which the TGI in test [1], in test [2], in test [3], in test [4], in [5] and in test [6] was above 100 µM in each case. In addition, the TGI in test [7], in test [8], in [9], in test [10] and in test [11] was above 100 µM in each case.
Consider `COC(=O)CCc1cc(OC)c2oc(-c3ccc(OC)c(OC)c3)c(CO)c2c1`, for which the TGI in test [1], in test [2], in [3], in test [4], in test [5] and in [6] was above 100 µM in each case. Further, the TGI in [7], in [8], in [9], in test [10] and in [11] was above 100 µM in each case.
As for `Nc1n[nH]c(N)n1`, the TGI in test [1] is above 10000 µM; in test [2] it was above 10000 µM; in [3] it was above 10000 µM; in [4], 7400 µM; in test [5], above 10000 µM; in [6], above 10000 µM. Further, the TGI is above 10000 µM in test [7]; above 10000 µM in test [8]; above 10000 µM in test [9]; above 8900 µM in [10]; above 10000 µM in [11].
Turning to `COC1=C(OC)C(=O)C(C/C=C/c2c(Cl)nc3sccn23)=C(C)C1=O`, the TGI in test [1] was above 100 µM; in test [2] it was 54.6 µM; in test [3] it was 46.9 µM; in [4], 12.1 µM; in test [5], 25.3 µM; in test [6] it was 8.97 µM. Also, the TGI in [7] was found to be 24.2 µM; in test [8] it was 38 µM; in test [9] it was 48.3 µM; in [10], 31.7 µM; in test [11], 84.2 µM.
For `Cc1cc(S(=O)(=O)Nc2nnc3c(Cl)cc(C(F)(F)F)cn23)c(S)cc1Cl`, the TGI in test [1], in test [2], in test [3], in test [4], in test [5] and in test [6] was above 100 µM throughout. Further, the TGI in test [7], in [8], in [9], in [10] and in test [11] was above 100 µM each time.
`COc1cccc2c1C(=O)c1c(O)c3c(c(O)c1C2=O)CC(O)(C(C)=O)CC3OC1OC(COC(C)=O)C(OC(C)=O)C(OC(C)=O)C1OC(C)=O` (configuration not stated): the TGI in test [1] is above 100 µM; in test [2], 64.8 µM; in test [3], above 100 µM; in [4], above 100 µM; in test [5] it was 63.7 µM; in [6] it was 36.9 µM. The TGI in test [7] was 37.2 µM; in test [8] it was 55.1 µM; in [9] it was above 100 µM; in test [10] it was above 100 µM; in [11], above 100 µM.
For `CSc1c(S(C)=O)c2ccccc2n1C` (configuration not stated), the TGI in test [1], in test [2], in test [3], in test [4], in [5] and in test [6] was above 100 µM each time. In addition, the TGI in [7], in test [8], in [9], in test [10] and in [11] was above 100 µM in each case.
On to `O=C(N/N=C\c1ccc(Cl)cc1)Nc1cccc2ccccc12`, for which the TGI in test [1] was above 31.6 µM; in [2], 12 µM; in test [3], above 100 µM; in [4], above 100 µM; in test [5], above 59.1 µM; in test [6] it was above 43.7 µM. Also, the TGI was above 40.8 µM in test [7]; above 26.1 µM in test [8]; above 100 µM in test [9]; 76 µM in test [10]; above 100 µM in test [11].
As to `O=[N+]([O-])c1ccc(C2NC(=S)NC3c4cc([N+](=O)[O-])ccc4CCCC23)cc1` (configuration not stated), the TGI in [1], in test [2], in [3], in test [4], in test [5] and in [6] was above 100 µM in each case. The TGI in [7], in [8], in [9], in [10] and in test [11] was above 100 µM in each case.
In the case of `CC(C)(C)c1cc(OCc2n[nH]c(=S)n2N)c(Cl)cc1OCc1n[nH]c(=S)n1N`, the TGI in [1], in test [2], in test [3], in test [4], in test [5] and in test [6] was above 100 µM in each case. Besides, the TGI in test [7] was above 100 µM; in test [8] it was above 100 µM; in [9], 43 µM; in test [10], 94 µM; in test [11], above 100 µM.
Consider `O=C(Cn1c2ccc(Br)cc2c2nc3ccccc3nc21)N1CCOCC1`, for which the TGI in test [1], in [2], in test [3], in test [4], in [5] and in test [6] was above 100 µM each time. For the same molecule, the TGI in test [7], in test [8], in test [9], in test [10] and in test [11] was above 100 µM each time.
Take `CCOC(=O)C12CCC(c3c(C)cccc3C)(O1)C(C(=O)OC)=C2C(=O)OC` (configuration not stated): the TGI in test [1] is above 10 µM; in [2], above 9.49 µM; in test [3], 4.72 µM; in test [4], above 7.87 µM; in test [5], 9.93 µM; in test [6] it was above 10 µM. The TGI in test [7], in [8], in [9], in [10] and in test [11] was above 10 µM each time.

The record behind these values is PubChem BioAssay (NCI).
